Test results: EP4324461A1, “(E)-N-CINAMOYLAMINOALKANOLES WITH MELANOGENESIS INHIBITORY ACTIVITY” (UNIWERSYTET JAGIELLONSKI, priority 2022, dated 2024)
Values after ≈ are worked out from the molar mass of the structure shown.

Assays:
[1] = test system: reconstituted human epidermis EpiDerm; details: 21 h, 0.01 %
Protocol: An epidermis with an area of 0.6 cm^2 was used. After receiving the tissue, the inserts were transferred to fresh medium and incubated in an incubator (5% CO2, 37 °C). All work during epidermis culture and application of the tested compounds and formulations was carried out in a laminar air flow chamber, using aseptic principles and sterile reagents and utensils. […] The applied solutions and formulation were spread on the surface of the inserts using a sterile glass bulb headed Pasteur pipette. The plates were incubated in the incubator for 21 hours, after which the inserts were transferred to new 6-well plates with 0.9 mL DBPS. 1 plate was exposed to UVA radiation at a dose of 6 J/cm^2 using a solar light simulator (Solar Simulator, Atlas) as its source (+UVA plate). The second plate was placed in a dark place outside the incubator for the same period of time (-UVA plate). After exposure, inserts from both plates were rinsed with DPBS, dried with a sterile cotton bud and placed in new plates containing 0.9 mL of fresh growth medium and incubated for 21 hours. After this time, the MTT test was performed by placing the inserts in 0.3 mL of MTT solution in DMEM medium (concentration 1 mg/mL) for 3 hours. After this time, the formed formazan was extracted into isopropanol and the absorbance of all samples was read at 270 nm. […]

[2] = test system: Balb/c 3T3 murine fibroblast cell line; test: Phototoxicity in Balb/c 3T3 fibroblasts (neutral red uptake)
Protocol: Balb/c 3T3 cells, which are an immortalized murine fibroblast cell line, were purchased at ATTC and cultured in the medium recommended by the manufacturer (DMEM GlutaMAX, newborn calf serum (BCS), antibiotics). After multiplication, cells were placed in 96-well plates, which were incubated for 24 hours, after which all wells of the plates were washed with 150 µL of balanced salt solution (HBSS). Then, after drying the plates, 100 µL of a solution of the tested compounds in HBSS with 2% FBS was added to each well and incubated for an hour. After this time, some of the plates were irradiated using the Suntest CPS+ sunlight simulator from Atlas with appropriate filters cutting off radiation with a wavelength <320 nm (UVA radiation intensity 5 J/cm^2). The second part of the plates was placed in radiation-free conditions for the same period of time. After the exposure time, the liquid was removed from all plates and the wells were washed twice with 150 µL of HBSS, then supplemented with fresh culture medium and incubated for 24 hours in an incubator (37 °C, 5% CO2). Viability was assessed in the neutral red uptake test, which is based on the ability of the dye to penetrate only into living cells. Dye uptake was confirmed by absorbance measurement at 540 nm. […] The appropriate coefficients were also calculated: mean phototoxic effect (MPE) and photoirritation factor (PIF). PIF is the ratio of the IC50 values of unirradiated to irradiated cells, while MPE is based on the comparison of concentration-response curves. […]

For CN(C)CCCN1c2ccccc2Sc2ccc(Cl)cc21 [Chlorpromazine, reference compound], the “Viability [% relative to water] ± SD” value [1] was 99.52±9.41 % relative to water, the phototoxic potential [2] was “clearly indicate its phototoxic potential” and the IC50 ([2]; Mus musculus, BALB/c3T3) was 18.6 µg/mL (≈ 58.2 µM). The MPE ([2]; mouse, 1 h) was 0.499 and the PIF ([2]; mouse, 1 h) was 25.618.
